From ChEMBL document CHEMBL4251711, “Bioactive Indolocarbazoles from the Marine-Derived Streptomyces sp. DT-A61” (J Nat Prod, 2018)

Tests used:
[1] = target: Rho-associated protein kinase 2 (Homo sapiens, UniProt O75116); test: Inhibition of ROCK2 (unknown origin) by HTRF assay
[2] = target: Protein kinase C alpha type (Homo sapiens, UniProt P17252); test: Inhibition of PKCalpha (unknown origin) by HTRF assay
PC-3 = test: Cytotoxicity against human PC3 cells after 72 hrs by SRB assay; assay type: functional, cell-based; conditions: PC-3, 72 h
[3] = target: T1, Mitogen-activated protein kinase kinase kinase 5 (Homo sapiens, UniProt Q99683); test: Inhibition of ASK1 (unknown origin) by HTRF assay
T1 sequence (Q99683 whole entry): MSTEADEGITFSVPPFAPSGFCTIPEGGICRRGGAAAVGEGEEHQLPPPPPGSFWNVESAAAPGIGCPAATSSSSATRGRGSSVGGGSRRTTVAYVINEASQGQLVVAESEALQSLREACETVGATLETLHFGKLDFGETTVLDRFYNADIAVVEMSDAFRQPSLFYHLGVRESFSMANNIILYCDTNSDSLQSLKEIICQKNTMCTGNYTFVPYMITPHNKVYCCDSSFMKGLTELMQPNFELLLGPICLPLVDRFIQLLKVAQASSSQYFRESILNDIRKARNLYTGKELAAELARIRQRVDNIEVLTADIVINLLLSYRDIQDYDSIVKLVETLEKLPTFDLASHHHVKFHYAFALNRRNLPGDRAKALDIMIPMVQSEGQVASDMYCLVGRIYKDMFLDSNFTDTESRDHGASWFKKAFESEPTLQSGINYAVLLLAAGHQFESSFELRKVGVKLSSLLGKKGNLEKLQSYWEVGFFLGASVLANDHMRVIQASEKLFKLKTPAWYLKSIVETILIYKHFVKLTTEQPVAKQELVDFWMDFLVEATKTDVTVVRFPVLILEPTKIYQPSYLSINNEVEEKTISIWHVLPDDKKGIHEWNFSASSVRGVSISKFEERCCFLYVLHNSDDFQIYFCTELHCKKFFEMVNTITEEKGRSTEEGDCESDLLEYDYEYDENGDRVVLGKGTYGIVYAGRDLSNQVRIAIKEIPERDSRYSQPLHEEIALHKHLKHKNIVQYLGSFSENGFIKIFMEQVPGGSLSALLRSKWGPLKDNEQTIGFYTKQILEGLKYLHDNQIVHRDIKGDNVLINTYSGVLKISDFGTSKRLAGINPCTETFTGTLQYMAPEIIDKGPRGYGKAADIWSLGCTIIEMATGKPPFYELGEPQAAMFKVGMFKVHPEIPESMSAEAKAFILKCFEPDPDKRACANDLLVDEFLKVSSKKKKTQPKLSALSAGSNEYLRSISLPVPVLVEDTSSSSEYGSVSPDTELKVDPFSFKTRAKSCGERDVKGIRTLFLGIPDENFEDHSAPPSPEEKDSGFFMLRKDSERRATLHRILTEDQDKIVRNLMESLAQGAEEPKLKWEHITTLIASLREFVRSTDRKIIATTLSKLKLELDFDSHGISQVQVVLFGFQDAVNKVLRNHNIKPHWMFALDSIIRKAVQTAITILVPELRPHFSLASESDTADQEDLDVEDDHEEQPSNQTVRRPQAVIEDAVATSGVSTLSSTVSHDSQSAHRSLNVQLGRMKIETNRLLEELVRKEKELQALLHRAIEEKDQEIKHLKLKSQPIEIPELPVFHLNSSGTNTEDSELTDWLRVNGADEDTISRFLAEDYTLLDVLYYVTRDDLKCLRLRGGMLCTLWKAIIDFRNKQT

Chain of Rho-associated protein kinase 2 (O75116 whole entry): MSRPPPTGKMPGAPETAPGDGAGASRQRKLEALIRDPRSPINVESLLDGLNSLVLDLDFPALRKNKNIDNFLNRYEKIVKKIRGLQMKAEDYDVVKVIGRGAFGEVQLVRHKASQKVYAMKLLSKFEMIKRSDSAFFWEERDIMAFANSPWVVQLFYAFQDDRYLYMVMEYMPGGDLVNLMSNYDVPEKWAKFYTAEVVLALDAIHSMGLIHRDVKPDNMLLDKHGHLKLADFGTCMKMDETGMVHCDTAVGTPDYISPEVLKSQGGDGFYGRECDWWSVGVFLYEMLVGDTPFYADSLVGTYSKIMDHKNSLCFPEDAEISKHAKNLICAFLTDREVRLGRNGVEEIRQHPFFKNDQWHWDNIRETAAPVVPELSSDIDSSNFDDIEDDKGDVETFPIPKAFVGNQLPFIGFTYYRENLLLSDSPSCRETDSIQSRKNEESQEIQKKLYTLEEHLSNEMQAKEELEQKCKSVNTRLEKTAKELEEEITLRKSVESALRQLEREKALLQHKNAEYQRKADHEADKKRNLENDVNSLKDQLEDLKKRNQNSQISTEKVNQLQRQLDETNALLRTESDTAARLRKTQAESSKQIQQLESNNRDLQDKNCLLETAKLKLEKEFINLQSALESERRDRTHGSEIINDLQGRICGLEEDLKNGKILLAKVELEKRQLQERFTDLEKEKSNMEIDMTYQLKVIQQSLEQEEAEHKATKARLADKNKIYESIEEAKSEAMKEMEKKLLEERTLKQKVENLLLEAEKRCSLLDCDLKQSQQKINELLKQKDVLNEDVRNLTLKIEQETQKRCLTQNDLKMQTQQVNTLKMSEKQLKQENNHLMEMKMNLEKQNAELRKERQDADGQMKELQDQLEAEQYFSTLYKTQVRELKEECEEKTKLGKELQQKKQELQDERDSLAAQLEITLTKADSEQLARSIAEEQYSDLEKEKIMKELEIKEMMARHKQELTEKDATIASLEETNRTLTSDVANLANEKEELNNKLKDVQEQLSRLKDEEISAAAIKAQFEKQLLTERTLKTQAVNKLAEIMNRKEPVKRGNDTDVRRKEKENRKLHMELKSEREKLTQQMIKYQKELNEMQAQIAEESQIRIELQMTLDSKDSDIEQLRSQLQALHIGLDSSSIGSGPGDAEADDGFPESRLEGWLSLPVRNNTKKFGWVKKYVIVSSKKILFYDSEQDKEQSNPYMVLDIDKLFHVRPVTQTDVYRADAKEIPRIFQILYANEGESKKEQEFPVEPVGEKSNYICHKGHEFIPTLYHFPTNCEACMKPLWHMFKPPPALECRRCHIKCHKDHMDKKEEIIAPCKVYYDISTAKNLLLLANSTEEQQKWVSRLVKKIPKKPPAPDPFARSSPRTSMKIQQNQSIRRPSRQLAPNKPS

IC50 [1] [nM]	IC50 [2] [nM]	IC50 [3] [nM]	SMILES	IC50 (PC-3) [nM]
260	92	770	CC(=O)N[C@H]1C[C@H]2O[C@@](C)([C@@H]1O)n1c3ccccc3c3c4c(c5c6ccccc6n2c5c31)C(=O)NC4	160
1400	97	> 50000	CC(=O)N[C@@H]1C[C@H](n2c3ccccc3c3c4c(c5c6cc(O)ccc6[nH]c5c32)CNC4=O)O[C@@H](C)[C@@H]1O	
340	1400	> 50000	C[C@H]1O[C@@H]2C[C@](O)([C@H]1O)n1c3ccccc3c3c4c(c5c6cc(O)ccc6n2c5c31)C(=O)NC4	5600
910	1400	> 50000	COC1NC(=O)c2c1c1c3ccccc3[nH]c1c1[nH]c3ccc(O)cc3c21 (stereo not given)	18000
340	980	740	O=C1NCc2c1c1c3ccccc3[nH]c1c1[nH]c3ccc(O)cc3c21	8000
40	460	6400	CC(=O)N[C@@H]1C[C@H](n2c3ccc(O)cc3c3c4c(c5c6ccccc6[nH]c5c32)CNC4=O)O[C@@H](C)[C@@H]1O	3600
150	79	1100	C[C@@H]1O[C@@H](n2c3ccc(O)cc3c3c4c(c5c6ccccc6[nH]c5c32)CNC4=O)C[C@@H](N)[C@H]1O	3100
970	2100	4100	C[C@@H]1O[C@@H]2C[C@](O)([C@H]1O)n1c3ccccc3c3c4c(c5c6cc(O)ccc6n2c5c31)C(=O)NC4	39000
5.7	3200	3000	O=C1NCc2c1c1c3cc(O)ccc3[nH]c1c1[nH]c3ccccc3c21	21000
